Data set [1] concerns Mus musculus. As to the kind of experiment: Protection against DNFB-induced atopic dermatitis in mouse assessed as reduction in ear thickness administered topically measured up to 4 days post DNFB treatment. Type of data set: functional, organism-based.
The target in data set [2] is T1, Phosphatidylinositol 4,5-bisphosphate 3-kinase catalytic subunit delta isoform (Homo sapiens) (UniProt O00329).
T1 sequence (whole entry): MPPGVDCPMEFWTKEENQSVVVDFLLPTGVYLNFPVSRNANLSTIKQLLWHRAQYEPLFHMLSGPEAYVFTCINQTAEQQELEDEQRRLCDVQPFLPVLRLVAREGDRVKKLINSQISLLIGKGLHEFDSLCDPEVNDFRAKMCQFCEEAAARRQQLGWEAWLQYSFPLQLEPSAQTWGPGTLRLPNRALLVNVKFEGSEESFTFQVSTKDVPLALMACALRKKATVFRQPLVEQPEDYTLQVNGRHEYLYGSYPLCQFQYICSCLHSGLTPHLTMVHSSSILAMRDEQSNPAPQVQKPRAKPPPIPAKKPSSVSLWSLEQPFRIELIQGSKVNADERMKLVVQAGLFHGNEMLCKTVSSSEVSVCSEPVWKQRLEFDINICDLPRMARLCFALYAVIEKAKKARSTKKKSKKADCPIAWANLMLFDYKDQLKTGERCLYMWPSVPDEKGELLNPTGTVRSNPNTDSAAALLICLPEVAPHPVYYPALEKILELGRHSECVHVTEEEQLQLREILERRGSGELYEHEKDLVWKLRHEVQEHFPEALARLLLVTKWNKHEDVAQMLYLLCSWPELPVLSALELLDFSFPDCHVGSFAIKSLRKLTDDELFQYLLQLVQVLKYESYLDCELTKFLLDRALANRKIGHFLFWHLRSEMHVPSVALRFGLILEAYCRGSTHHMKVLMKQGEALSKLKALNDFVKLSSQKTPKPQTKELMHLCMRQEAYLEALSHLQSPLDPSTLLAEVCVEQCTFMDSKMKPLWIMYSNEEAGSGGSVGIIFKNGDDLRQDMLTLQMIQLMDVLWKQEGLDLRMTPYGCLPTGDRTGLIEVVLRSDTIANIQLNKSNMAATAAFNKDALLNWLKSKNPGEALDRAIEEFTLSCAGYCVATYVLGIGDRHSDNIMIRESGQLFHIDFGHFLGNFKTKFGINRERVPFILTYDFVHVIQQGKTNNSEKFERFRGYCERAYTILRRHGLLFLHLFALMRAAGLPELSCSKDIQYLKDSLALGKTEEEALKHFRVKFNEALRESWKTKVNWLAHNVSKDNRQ
Kind of data set: Inhibition of PI3Kdelta in human basophils assessed as reduction in IgE-induced degranulation by measuring CD203c expression level at 100 uM by fluorescence assay relative to control. Also on record: scale not given: the % may be the effect or the level left.

The target of data set [3] is T1, Phosphatidylinositol 4,5-bisphosphate 3-kinase catalytic subunit delta isoform (Homo sapiens). Kind of data set: Inhibition of PI3Kdelta in human basophils assessed as reduction in IgE-induced degranulation by measuring CD63 expression level at 100 uM by flow cast assay relative to control. Also on record: scale not given: the % may be the effect or the level left.

Data set [4] has the same target. As to the kind of experiment: Inhibition of PI3Kdelta in human basophils assessed as reduction in IgE-induced degranulation by measuring decrease in CD63 expression level by flow cast assay.
Data set [5] has the same target. As to the kind of experiment: Inhibition of PI3Kdelta in human basophils assessed as reduction in IgE-induced degranulation by decrease in measuring CD203c expression level by fluorescence assay.
Data set [6] concerns Mus musculus. As to the kind of experiment: Anti-asthmatic activity in mouse model of ovalbumin-induced asthma assessed as decrease in methacholine-induced lung resistance at 90 mg/kg aerosolized daily by plethysmographic method. Type of data set: functional, organism-based.
Data set [7] concerns Mus musculus. As to the kind of experiment: Anti-inflammatory activity in mouse model of ovalbumin-induced asthma assessed as decrease in eosinophilic infilteration at 90 mg/kg aerosolized daily. Type of data set: functional, organism-based.
In data set [8] the test system is Mus musculus. Kind of data set: Protection against DNFB-induced atopic dermatitis in mouse assessed as reduction in ear thickness at 90 mg/kg, ip measured up to 3 days post DNFB treatment. The format is functional, organism-based.
In data set [9] the target is PI3-kinase p110-alpha/p85-alpha (Homo sapiens, UniProt P42336). As to the kind of experiment: Inhibition of PI3KCalpha/PIK3R1 (unknown origin). Type of data set: protein-complex assay.
Data set [10] deals with Mus musculus. As to the kind of experiment: Anti-inflammatory activity in mouse model of ovalbumin-induced asthma assessed as decrease in total leukocytic infilterate in BAL administered ip daily. The format is functional, organism-based.
Data set [11] has as its system Mus musculus. Kind of data set: Toxicity in mouse up to 90 mg/kg, ip or iv administered 3 to 5 times/week up to 4 weeks. Type of data set: organism-based. As to conditions: in vivo, 672 h.
Data set [12] addresses Phosphatidylinositol 4,5-bisphosphate 3-kinase catalytic subunit gamma isoform (Homo sapiens, UniProt P48736). As to the kind of experiment: Inhibition of PI3KCgamma (unknown origin).
Data set [13] deals with PI3-kinase p110-delta/p85-alpha (Homo sapiens, UniProt O00329). As to the kind of experiment: Inhibition of PI3KCdelta/PIK3R1 (unknown origin). Type of data set: protein-complex assay.
Data set [14] concerns Mus musculus. Kind of data set: Anti-inflammatory activity in mouse model of ovalbumin-induced asthma assessed as decrease in total leukocytic infilterate in BAL at 90 mg/kg aerosolized daily. The format is functional, organism-based.
The test system of data set [15] is Mus musculus. As to the kind of experiment: Anti-inflammatory activity in mouse model of ovalbumin-induced asthma assessed as decrease in total leukocytic infilterate in lungs administered ip daily. The format is functional, organism-based.
In data set [16] the test system is Mus musculus. Kind of data set: Anti-asthmatic activity in mouse model of ovalbumin-induced asthma assessed as decrease in methacholine-induced lung resistance at 90 mg/kg, ip daily by plethysmographic method. The format is functional, organism-based.
Data set [17] concerns Mus musculus. As to the kind of experiment: Anti-inflammatory activity in mouse model of ovalbumin-induced asthma assessed as decrease in eosinophilic infilteration administered ip daily. Type of data set: functional, organism-based.
Another data set addresses PI3K p110 beta/p85 alpha (Homo sapiens, UniProt P42338). As to the kind of experiment: Inhibition of PI3KCbeta/PIK3R1 (unknown origin). Type of data set: protein-complex assay.
Data set [18] deals with Mus musculus. As to the kind of experiment: Anti-inflammatory activity in mouse model of ovalbumin-induced asthma assessed as decrease in neutrophilic infilteration at 90 mg/kg aerosolized daily. Type of data set: functional, organism-based.
Data set [19] deals with Mus musculus. Kind of data set: Anti-inflammatory activity in mouse model of ovalbumin-induced asthma assessed as decrease in macrophage infilteration at 90 mg/kg aerosolized daily. Type of data set: functional, organism-based.
Data set [20] relates to Mus musculus. Kind of data set: Anti-asthmatic activity in mouse model of ovalbumin-induced asthma assessed as decrease in methacholine-induced lung resistance at 10 mg/kg, ip daily by plethysmographic method. The format is functional, organism-based.
Data set [21] deals with Mus musculus. As to the kind of experiment: Anti-asthmatic activity in mouse model of ovalbumin-induced asthma assessed as decrease in methacholine-induced lung resistance at 10 mg/kg aerosolized daily by plethysmographic method. Type of data set: functional, organism-based.
Data set [22] has as its system Mus musculus. Kind of data set: Anti-inflammatory activity in mouse model of ovalbumin-induced asthma assessed as decrease in total leukocytic infilterate in BAL at 10 mg/kg aerosolized daily. The format is functional, organism-based.

Data on 23 compounds can be found in ChEMBL document CHEMBL4265934 (Eur J Med Chem, 2018).

pIC50: −log10 of the molar value. Active and inactive are the calls of the source. No cut-off for these calls is given here.

As a reminder, the pIC50 is −log10 of the IC50, conventionally taken in molar units.

Chain of PI3K p110 beta/p85 alpha (P27986 whole entry): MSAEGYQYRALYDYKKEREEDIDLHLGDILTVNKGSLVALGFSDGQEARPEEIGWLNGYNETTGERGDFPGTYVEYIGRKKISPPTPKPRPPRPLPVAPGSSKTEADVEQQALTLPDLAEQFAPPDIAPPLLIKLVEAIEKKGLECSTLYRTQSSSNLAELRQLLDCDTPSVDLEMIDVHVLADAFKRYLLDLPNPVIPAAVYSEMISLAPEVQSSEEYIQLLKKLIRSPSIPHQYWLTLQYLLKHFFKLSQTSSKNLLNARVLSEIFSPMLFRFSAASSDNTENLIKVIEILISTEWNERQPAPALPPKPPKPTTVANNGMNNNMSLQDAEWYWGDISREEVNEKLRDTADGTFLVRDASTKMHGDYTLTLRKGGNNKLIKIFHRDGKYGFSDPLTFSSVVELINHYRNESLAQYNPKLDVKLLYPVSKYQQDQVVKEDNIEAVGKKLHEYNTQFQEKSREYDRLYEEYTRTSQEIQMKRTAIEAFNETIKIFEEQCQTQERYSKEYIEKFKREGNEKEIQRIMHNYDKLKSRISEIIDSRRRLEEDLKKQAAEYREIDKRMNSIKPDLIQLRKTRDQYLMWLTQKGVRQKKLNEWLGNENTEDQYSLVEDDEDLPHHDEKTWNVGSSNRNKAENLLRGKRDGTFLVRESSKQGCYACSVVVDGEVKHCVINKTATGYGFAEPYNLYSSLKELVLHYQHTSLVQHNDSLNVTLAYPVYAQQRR
Chain of PI3K p110 beta/p85 alpha (P42338 whole entry): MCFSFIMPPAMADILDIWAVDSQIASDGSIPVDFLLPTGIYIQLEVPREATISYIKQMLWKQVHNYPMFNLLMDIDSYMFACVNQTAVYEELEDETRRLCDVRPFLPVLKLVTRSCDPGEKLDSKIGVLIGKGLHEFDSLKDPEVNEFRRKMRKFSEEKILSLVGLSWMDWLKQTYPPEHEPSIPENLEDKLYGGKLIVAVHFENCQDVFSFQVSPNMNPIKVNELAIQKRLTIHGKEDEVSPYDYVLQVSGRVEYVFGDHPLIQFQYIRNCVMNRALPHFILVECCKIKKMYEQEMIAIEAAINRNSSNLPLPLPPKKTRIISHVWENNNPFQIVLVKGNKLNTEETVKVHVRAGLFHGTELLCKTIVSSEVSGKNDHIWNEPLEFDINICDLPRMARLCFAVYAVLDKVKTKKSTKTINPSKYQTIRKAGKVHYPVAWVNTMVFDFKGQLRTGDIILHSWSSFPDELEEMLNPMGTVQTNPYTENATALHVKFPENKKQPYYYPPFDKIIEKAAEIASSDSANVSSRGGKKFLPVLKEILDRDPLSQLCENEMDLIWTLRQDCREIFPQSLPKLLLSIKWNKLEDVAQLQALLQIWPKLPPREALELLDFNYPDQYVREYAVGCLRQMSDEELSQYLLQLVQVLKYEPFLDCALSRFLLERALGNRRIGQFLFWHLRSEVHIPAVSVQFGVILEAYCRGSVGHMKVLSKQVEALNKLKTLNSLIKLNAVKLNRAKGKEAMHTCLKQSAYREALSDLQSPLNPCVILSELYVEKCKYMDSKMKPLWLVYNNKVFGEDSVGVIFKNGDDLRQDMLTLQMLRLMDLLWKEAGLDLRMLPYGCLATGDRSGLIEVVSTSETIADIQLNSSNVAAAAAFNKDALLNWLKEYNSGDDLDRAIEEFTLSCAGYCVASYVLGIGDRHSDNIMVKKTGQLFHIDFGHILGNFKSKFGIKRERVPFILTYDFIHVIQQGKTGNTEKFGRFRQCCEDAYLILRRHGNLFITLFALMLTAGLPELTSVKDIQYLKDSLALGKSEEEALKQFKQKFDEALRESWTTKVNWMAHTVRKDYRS
Chain of PI3-kinase p110-alpha/p85-alpha (P27986 whole entry): as the sequence (P27986 whole entry) above
Chain of PI3-kinase p110-alpha/p85-alpha (P42336 whole entry): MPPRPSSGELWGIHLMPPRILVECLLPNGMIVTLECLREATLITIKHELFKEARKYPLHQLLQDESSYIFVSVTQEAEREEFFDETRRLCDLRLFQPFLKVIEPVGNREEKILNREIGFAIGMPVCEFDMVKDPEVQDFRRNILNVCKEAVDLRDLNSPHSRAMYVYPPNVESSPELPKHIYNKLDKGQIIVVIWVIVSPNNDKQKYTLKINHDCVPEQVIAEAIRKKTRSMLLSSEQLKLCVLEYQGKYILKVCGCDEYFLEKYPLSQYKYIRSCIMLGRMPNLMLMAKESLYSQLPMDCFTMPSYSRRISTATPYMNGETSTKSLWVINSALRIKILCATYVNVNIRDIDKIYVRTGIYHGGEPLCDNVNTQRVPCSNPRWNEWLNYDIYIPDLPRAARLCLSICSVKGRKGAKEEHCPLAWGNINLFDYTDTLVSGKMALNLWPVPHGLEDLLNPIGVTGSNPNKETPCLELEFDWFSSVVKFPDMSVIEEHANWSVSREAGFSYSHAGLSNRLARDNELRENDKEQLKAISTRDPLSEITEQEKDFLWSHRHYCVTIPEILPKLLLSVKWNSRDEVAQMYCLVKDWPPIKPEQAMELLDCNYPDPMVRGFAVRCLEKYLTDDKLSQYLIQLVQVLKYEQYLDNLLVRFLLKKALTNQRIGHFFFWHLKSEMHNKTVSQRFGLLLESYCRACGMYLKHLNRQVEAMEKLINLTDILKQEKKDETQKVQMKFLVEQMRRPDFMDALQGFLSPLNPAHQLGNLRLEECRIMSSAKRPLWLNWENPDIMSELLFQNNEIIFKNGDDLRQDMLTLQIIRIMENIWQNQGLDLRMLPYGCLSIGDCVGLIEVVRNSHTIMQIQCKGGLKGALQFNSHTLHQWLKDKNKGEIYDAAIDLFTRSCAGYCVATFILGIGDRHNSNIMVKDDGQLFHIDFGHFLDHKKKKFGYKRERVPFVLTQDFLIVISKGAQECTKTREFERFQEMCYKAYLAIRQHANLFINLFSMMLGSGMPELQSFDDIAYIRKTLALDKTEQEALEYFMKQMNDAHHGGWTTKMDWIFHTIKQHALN
Chain of PI3-kinase p110-delta/p85-alpha (P27986 whole entry, one chain of several): as the sequence (P27986 whole entry) above
Chain of Phosphatidylinositol 4,5-bisphosphate 3-kinase catalytic subunit gamma isoform (P48736 whole entry, canonical isoform): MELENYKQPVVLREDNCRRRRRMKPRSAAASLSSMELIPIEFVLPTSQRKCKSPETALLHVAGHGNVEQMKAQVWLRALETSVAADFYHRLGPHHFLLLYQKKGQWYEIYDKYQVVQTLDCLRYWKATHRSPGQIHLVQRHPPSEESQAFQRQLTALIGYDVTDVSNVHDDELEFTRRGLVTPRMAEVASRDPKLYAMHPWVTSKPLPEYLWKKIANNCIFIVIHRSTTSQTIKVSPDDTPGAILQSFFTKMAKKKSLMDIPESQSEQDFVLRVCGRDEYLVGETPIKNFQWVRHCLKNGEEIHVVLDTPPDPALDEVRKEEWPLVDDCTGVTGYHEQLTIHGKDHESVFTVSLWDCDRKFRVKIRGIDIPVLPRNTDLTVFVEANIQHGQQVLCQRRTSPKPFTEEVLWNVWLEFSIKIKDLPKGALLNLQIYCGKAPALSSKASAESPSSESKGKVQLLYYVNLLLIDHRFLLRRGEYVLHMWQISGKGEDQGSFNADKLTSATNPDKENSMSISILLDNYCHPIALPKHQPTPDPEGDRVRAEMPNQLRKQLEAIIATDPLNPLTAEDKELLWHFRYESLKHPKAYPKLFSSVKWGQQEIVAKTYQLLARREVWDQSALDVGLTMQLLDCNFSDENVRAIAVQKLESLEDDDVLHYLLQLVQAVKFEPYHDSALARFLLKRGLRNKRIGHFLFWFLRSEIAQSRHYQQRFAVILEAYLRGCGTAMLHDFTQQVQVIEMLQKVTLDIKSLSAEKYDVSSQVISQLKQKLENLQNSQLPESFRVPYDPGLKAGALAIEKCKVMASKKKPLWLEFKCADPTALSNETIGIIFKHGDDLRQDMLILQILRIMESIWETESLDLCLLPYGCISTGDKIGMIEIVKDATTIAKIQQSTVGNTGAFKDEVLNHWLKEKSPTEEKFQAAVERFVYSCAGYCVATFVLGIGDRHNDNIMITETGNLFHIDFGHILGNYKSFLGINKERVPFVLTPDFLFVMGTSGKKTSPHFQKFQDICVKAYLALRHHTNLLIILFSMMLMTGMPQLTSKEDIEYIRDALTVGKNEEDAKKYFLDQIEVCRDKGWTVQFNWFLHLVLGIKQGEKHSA

As to `CCC(=O)OCC(=O)[C@@]1(OC(=O)CC)[C@@H](C)C[C@H]2[C@@H]3CCC4=CC(=O)C=C[C@]4(C)[C@@]3(F)[C@@H](O)C[C@@]21C`, in the data set on Mus musculus [1], the result was Active.
For `COc1cccc(OC)c1/C=C/C(=O)c1c(OC)cc(OC)c(C2CCN(C)CC2)c1O`, the figures for the Activity in [2] and in data set [3] were 41% and 4%, respectively.
Consider `COc1cc(OC)c(/C=C/C(=O)c2ccc(OC)c(OC)c2)c(OC)c1`, for which the Activity in [2] came to 95%; in data set [3] it was 91%.
With `COc1ccc(C(=O)/C=C/c2cc(OC)c(OC)c(OC)c2)c(O)c1`, the Activity is 93% in [2] and 92% in [3].
Turning to `COc1ccc(C(=O)/C=C/c2c(OC)cc(OC)cc2OC)c(OC)c1`, the values for the Activity in [2] and in data set [3] were 86% and 76%, respectively.
Take `COc1cc(OC)c(C(=O)/C=C/c2ccc(OC)c(O)c2)c(OC)c1`: the Activity in data set [2] amounted to 54%; in data set [3], 40%.
As for `COc1cc(OC)c(/C=C/C(=O)c2c(OC)cc(N)cc2OC)c(OC)c1`, the Activity was 75% in data set [2] and 63% in data set [3].
For `COc1cc(O)c(C(=O)/C=C/c2c(OC)cccc2OC)c(OC)c1`, the Activity in data set [2] was 85%; in data set [3], 81%.
Take `COc1cccc(OC)c1C(=O)/C=C/c1ccc(C(F)(F)F)cc1`: the Activity in data set [2] is 81%; in data set [3], 64%.
Consider `COc1cc(OC)c(C(=O)/C=C/c2ccccc2OC)c(OC)c1`, for which the values for the Activity in data set [2] and in [3] were 65% and 48%, respectively.
On to `COc1ccc(/C=C/C(=O)c2cc(OC)c(OC)cc2OC)cc1O`, for which the values for the Activity in data set [2] and in data set [3] were 62% and 49%, respectively.
For `COc1ccccc1/C=C/C(=O)c1cc(OC)c(OC)cc1OC`, in that order: 65% and 55%.
With `COc1cc(OC)c(OC)cc1/C=C/C(=O)c1cc(OC)c(OC)cc1OC`, the values for the Activity in data set [2] and in data set [3] were 70% and 66%, respectively.
Regarding `COc1cc(OC)c(/C=C/C(=O)c2c(OC)cc(OC)c(C3CCN(C)CC3)c2O)c(OC)c1`, the inhibition result in data set [4] and in data set [5] was “Dose-dependent effect” each time. Further, the result with Mus musculus [6], with Mus musculus [8] and in the data set with Mus musculus [16] was Active. The outcome in the data set with Mus musculus [7], in the data set on Mus musculus [14], in the data set on Mus musculus [18] and in the data set with Mus musculus [19] was inactive. Further, the negative logarithm of the IC50 (pIC50) in data set [9] is less than 5.00; in data set [12], 5.00; in data set [13], 5.14; at PI3K p110 beta/p85 alpha it was less than 5.00. Besides, the Activity result was “Dose-dependent effect” in the data set with Mus musculus [10], “Non-Toxic” in the data set with Mus musculus [11], “Dose-dependent effect” with Mus musculus [15] and “Dose-dependent effect” with Mus musculus [17].
With `COc1cccc(/C=C/C(=O)c2c(OC)cccc2OC)c1`, the Activity in data set [2] was determined as 82%; in data set [3] it was 100%.
For `COc1ccc(C(=O)/C=C/c2c(OC)cc(OC)cc2OC)c(O)c1`, in that order: 91% and 95%.
Consider `O=C(O)c1cc(=O)c2c(OCC(O)COc3cccc4oc(C(=O)O)cc(=O)c34)cccc2o1`, for which the result in the data set on Mus musculus [20] was inactive.
For the compound `COc1cc(OC)c(/C=C/C(=O)c2c(OC)cccc2OC)c(OC)c1`, the values for the Activity in data set [2] and in [3] were 81% and 78%, respectively.
With `C[C@@H]1C[C@H]2[C@@H]3CCC4=CC(=O)C=C[C@]4(C)[C@@]3(F)[C@@H](O)C[C@]2(C)[C@@]1(O)C(=O)CO`, the result in the data set on Mus musculus [21] and with Mus musculus [22] was Active.
As for `COc1cc(OC)c(C(=O)/C=C/c2cc(OC)c(OC)cc2OC)c(OC)c1`, the Activity came out at 51% in data set [2] and 53% in data set [3].
On the same counts, the results for `COc1cc(OC)c(/C=C/C(=O)c2c(OC)cc(OC)cc2OC)c(OC)c1` are 68% and 67%.
For `COc1cccc(OC)c1/C=C/C(=O)c1c(OC)cccc1OC`, in that order: 96% and 94%.
In the case of `COc1cc(OC)c(C2CCN(C)CC2)c(O)c1C(=O)/C=C/c1c(Cl)cccc1Cl`, the Activity is 24% in data set [2] and 6% in [3].
